# Assay results: US9383374B2, “Methods to determine susceptibility to treatment with leukotriene modifiers” (NATIONAL JEWISH HEALTH, priority 2008, dated 2016)
# Tested on: children with physician-diagnosed asthma
# Test: Randomized placebo-controlled study of daily montelukast on LTE4-related albuterol usage in schoolchildren with asthma
# Format: in vivo, human
# Details: for Change in Albuterol Usage Per IQR Increase in LTE4, Relative difference (treatment vs baseline interval) / Change in Albuterol Usage Per IQR Increase in LTE4, Treatment Interval: montelukast group
# Description: Twenty-eight children, aged 6 to 15, who had physician-diagnosed asthma were followed over a 5-month period (Nov. 15, 2005 to Apr. 15, 2006). Children were excluded from the study if they were already receiving montelukast. Many of the children are classified as urban poor. The children attended the same school.
# After an initial two and a half month period (baseline interval), children were randomized to receive daily montelukast (montelukast group) or placebo (placebo group) for the final two and a half months of the study (treatment interval). Study medication and placebo were administered in a single-blinded fashion by school nurses or study personnel on school days and by parents (who were blinded) on non-school-days. Children were otherwise followed by their regular physicians who were free to adjust medications as needed (these medication changes were recorded and controlled for in the statistical analysis).
# Each child was given a Doser (Meditrak, Hudson, M S) for use at school throughout the 5-month period. The Doser is an electronic counter that records the total number of (albuterol) activations in each 24-hour period. At study initiation, parents completed a questionnaire describing baseline demographic and asthma severity characteristics. School nurses recorded all other medication changes during the study.
# Sixteen urine samples were collected from each child on 8 consecutive schooldays during the baseline interval and 8 consecutive schooldays during the treatment interval. Urine was collected at approximately the same time each day (10:00 AM to 12:00 PM). Collection was staggered in groups of 10 children so that urine monitoring occurred daily throughout the 5 months of the study.
# Baseline model: A Poisson regression model employing generalized estimating equations (GEE) (Dobson A J. An introduction to generalized linear models, 2nd edition, Chapman & Hall/CRC 2001) was used to determine the strength of association between albuterol medication use (modeled as the outcome) and LTE4 levels, at various lag times (in days) between the variables. An indicator for Friday (=1 if response was on Friday, =0 otherwise) was included because children had regular exercise activities from Monday through Thursday, but not on Friday. […] The same day and up to a 4-day lag of LTE4 was tested for, in separate models.
# Experiment model: Daily albuterol use was modeled as a function of LTE4, group (montelukast and placebo), interval (baseline and treatment), and all interactions of these variables, using Poisson regression and employing GEE. Using the baseline model as a guide, 3-day moving averages of LTE4 (days 0-2 and 1-3 prior to current day) were used. Other covariates in the model included daily indicators for Friday, prednisone use, special exercise days during the treatment interval, and interval-level indictors of ICS and LABA use.
# Effect modifier models: These models were fit for the subjects randomized to montelukast only. The model had LTE4, interval, the effect modifier of interest, and all interactions of these variables. Otherwise, the model was similar to the ‘Experiment model’ described above. The effect modifiers tested included gender, ICS and LABA use, mean LTE4, mean FENO, height, mean cotinine, and mean LTE4 to FENO ratio.
# The interquartile range (IQR) for LTE4 was used to standardize slope estimates; this statistic was determined by first calculating the IQR for each subject, and then taking the median across subjects. For all models described above, a first order autoregressive working covariance structure was used to model repeated measures within subjects over time. SAS software, version 9.1 (PROC GENMOD) was used to fit the data to the models described above. […]
# [1] = Group 1 meds: No Meds or ICS, 1-3 day moving average
# [2] = Group 2 meds: ICS and LABA, 1-3 day moving average
# [3] = LTE4:FENO Ratio 1st quartile estimate
# [4] = LTE4:FENO Ratio 3rd quartile estimate
# [5] = mean FENO 1st quartile estimate
# [6] = mean FENO 3rd quartile estimate
# [7] = mean LTE4 1st quartile estimate
# [8] = mean LTE4 3rd quartile estimate
# [9] = mean urine Cotinine 1st quartile estimate
# [10] = mean urine Cotinine 3rd quartile estimate
smiles,measurement,setting,value
"CC(C)(O)c1ccccc1CC[C@@H](SCC1(CC(=O)O)CC1)c1cccc(/C=C/c2ccc3ccc(Cl)cc3n2)c1 [Montelukast, montelukast]","Change in Albuterol Usage per IQR of LTE4, Relative Diff.",Female (Group 2 gender),−26.7%
same,"Change in Albuterol Usage per IQR of LTE4, Treatment interval",Female (Group 2 gender),−11.5%
same,"Change in Albuterol Usage per IQR of LTE4, Relative Diff.",[1],−22.0%
same,"Change in Albuterol Usage per IQR of LTE4, Treatment interval",[1],−10.5%
same,"Change in Albuterol Usage per IQR of LTE4, Relative Diff.",[2],−6.6%
same,"Change in Albuterol Usage per IQR of LTE4, Treatment interval",[2],−1.0%
same,"Change in Albuterol Usage per IQR of LTE4, Relative Diff.",Height 1st quartile estimate,−16.4%
same,"Change in Albuterol Usage per IQR of LTE4, Treatment interval",Height 1st quartile estimate,−2.4%
same,"Change in Albuterol Usage per IQR of LTE4, Relative Diff.",Height 3rd quartile estimate,−16.4%
same,"Change in Albuterol Usage per IQR of LTE4, Treatment interval",Height 3rd quartile estimate,−0.3%
same,"Change in Albuterol Usage per IQR of LTE4, Relative Diff.",[3],1.8%
same,"Change in Albuterol Usage per IQR of LTE4, Treatment interval",[3],−0.8%
same,"Change in Albuterol Usage per IQR of LTE4, Relative Diff.",[4],−17.6%
same,"Change in Albuterol Usage per IQR of LTE4, Treatment interval",[4],−1.3%
same,"Change in Albuterol Usage per IQR of LTE4, Relative Diff.",Male (Group 1 gender),−7.9%
same,"Change in Albuterol Usage per IQR of LTE4, Treatment interval",Male (Group 1 gender),−0.5%
same,"Change in Albuterol Usage per IQR of LTE4, Relative Diff.",[5],−10.4%
same,"Change in Albuterol Usage per IQR of LTE4, Treatment interval",[5],−0.1%
same,"Change in Albuterol Usage per IQR of LTE4, Relative Diff.",[6],−0.6%
same,"Change in Albuterol Usage per IQR of LTE4, Treatment interval",[6],−6.4%
same,"Change in Albuterol Usage per IQR of LTE4, Relative Diff.",[7],−13.4%
same,"Change in Albuterol Usage per IQR of LTE4, Treatment interval",[7],−1.5%
same,"Change in Albuterol Usage per IQR of LTE4, Relative Diff.",[8],−10.9%
same,"Change in Albuterol Usage per IQR of LTE4, Treatment interval",[8],−4.8%
same,"Change in Albuterol Usage per IQR of LTE4, Relative Diff.",[9],−8.2%
same,"Change in Albuterol Usage per IQR of LTE4, Treatment interval",[9],−4.0%
same,"Change in Albuterol Usage per IQR of LTE4, Relative Diff.",[10],−6.6%
same,"Change in Albuterol Usage per IQR of LTE4, Treatment interval",[10],−3.6%
same,"Change in Albuterol Usage Per IQR Increase in LTE4, Relative difference (treatment vs baseline interval)",Lag 0-2,−10.8%
same,"Change in Albuterol Usage Per IQR Increase in LTE4, Treatment Interval",Lag 0-2 (Day 0-2 moving average of LTE4),−3.0%
same,"Change in Albuterol Usage Per IQR Increase in LTE4, Relative difference (treatment vs baseline interval)",Lag 1-3,−13.0%
same,"Change in Albuterol Usage Per IQR Increase in LTE4, Treatment Interval",Lag 1-3 (Day 1-3 moving average of LTE4),−3.2%
